Measured values from the NIST ThermoML archive (doi:10.1016/j.jct.2013.12.009).

Tests used:
[1] = xn = mol fraction of the nth substance listed; details: for surface tension liquid-gas: Pendant drop shape; for viscosity / mass density: 101 kPa, Liquid; for viscosity: Concentric cylinders viscometry; for mass density: Vibrating tube method
[2] = for surface tension liquid-gas: Pendant drop shape; for mass density / speed of sound / kinematic viscosity: Liquid; for mass density: Vibrating tube method; for speed of sound: Sing-around technique in a fixed-path interferometer; for kinematic viscosity: Capillary tube (Ostwald / Ubbelohde) method

CCCC[N+]1(C)CCCC1.O=S(=O)([N-]S(=O)(=O)C(F)(F)F)C(F)(F)F + CO
[1]
Details | mass density, 288.15 K [kg/m3] | mass density, 298.15 K [kg/m3] | mass density, 308.15 K [kg/m3] | surface tension liquid-gas, 288.15 K [mN/m] | surface tension liquid-gas, 298.15 K [mN/m] | surface tension liquid-gas, 308.15 K [mN/m] | viscosity, 288.15 K [mPa·s] | viscosity, 298.15 K [mPa·s] | viscosity, 308.15 K [mPa·s]
x1 = 0.0495 | 970.4 | 960.7 | 951.1 | 24.36 | 23.54 | 22.73 | – | – | –
x1 = 0.1886 | 1186.4 | 1176.8 | 1167.3 | 26.9 | 26.36 | 25.86 | – | – | –
x1 = 0.2054 | – | – | – | – | – | – | 5.04 | 3.91 | 3.11
x1 = 0.3407 | 1281.7 | 1272.3 | 1263 | 29.25 | 28.95 | 28.63 | – | – | –
x1 = 0.4365 | – | – | – | – | – | – | 17.5 | 12.51 | 9.35
x1 = 0.4932 | 1332.2 | 1323 | 1313.8 | 31.03 | 30.85 | 30.54 | – | – | –
x1 = 0.5394 | – | – | – | – | – | – | 26.71 | 18.54 | 13.51
x1 = 0.6076 | 1356.2 | 1347 | 1338 | 32.08 | 31.67 | 31.36 | – | – | –
x1 = 0.637 | 1361.2 | 1352.1 | 1343 | 32.25 | 31.94 | 31.65 | – | – | –
x1 = 0.7067 | – | – | – | – | – | – | 49.43 | 32.82 | 23.02
x1 = 0.801 | 1384 | 1375 | 1366.1 | 33.23 | 32.77 | 32.33 | – | – | –
x1 = 0.8363 | 1388.1 | 1379.1 | 1370.3 | – | – | – | – | – | –
x1 = 0.9135 | 1395.6 | 1386.7 | 1377.9 | 33.57 | 33.1 | 32.65 | – | – | –
x1 = 1 | 1403.4 | 1394.5 | 1385.7 | 33.71 | 33.22 | 32.82 | – | – | –

CC#N [acetonitrile]
[2]
Details | surface tension liquid-gas [mN/m]
288.15 K | 29.53
298.15 K | 28.34
308.15 K | 27.15

[2], 101 kPa
Details | mass density [kg/m3]
288.15 K | 787.2
298.15 K | 776.53
308.15 K | 765.7

CCCC[N+]1(C)CCCC1.O=S(=O)([N-]S(=O)(=O)C(F)(F)F)C(F)(F)F + CC#N
[1]
Details | mass density, 288.15 K [kg/m3] | mass density, 298.15 K [kg/m3] | mass density, 308.15 K [kg/m3] | surface tension liquid-gas, 288.15 K [mN/m] | surface tension liquid-gas, 298.15 K [mN/m] | surface tension liquid-gas, 308.15 K [mN/m] | viscosity, 288.15 K [mPa·s] | viscosity, 298.15 K [mPa·s] | viscosity, 308.15 K [mPa·s]
x1 = 0.053 | 941.8 | 931.2 | 920.5 | 30.92 | 29.78 | 28.55 | – | – | –
x1 = 0.1924 | – | – | – | – | – | – | 2.41 | 2.02 | 1.73
x1 = 0.1989 | 1156.4 | 1146.2 | 1136.2 | 32.45 | 31.45 | 30.57 | – | – | –
x1 = 0.3593 | 1263.1 | 1253.5 | 1243.9 | 33.18 | 32.48 | 31.76 | – | – | –
x1 = 0.4602 | – | – | – | – | – | – | 13.16 | 9.79 | 7.56
x1 = 0.5201 | 1322.1 | 1312.7 | 1303.4 | 33.45 | 32.84 | 32.2 | – | – | –
x1 = 0.598 | – | – | – | – | – | – | 26.33 | 18.47 | 13.58
x1 = 0.6103 | 1344.7 | 1335.5 | 1326.4 | 33.51 | 32.97 | 32.44 | – | – | –
x1 = 0.788 | 1377.3 | 1368.3 | 1359.2 | 33.58 | 33.13 | 32.68 | – | – | –
x1 = 0.8159 | – | – | – | – | – | – | 65.88 | 42.55 | 29.18
x1 = 0.9394 | 1396.6 | 1387.8 | 1379 | 33.71 | 33.2 | 32.72 | – | – | –
x1 = 1 | 1403.4 | 1394.5 | 1385.7 | 33.71 | 33.22 | 32.82 | – | – | –

CC#N [acetonitrile] + CCCC[N+]1(C)CCCC1.O=S(=O)([N-]S(=O)(=O)C(F)(F)F)C(F)(F)F
[1], x2 = 0
Details | mass density [kg/m3] | surface tension liquid-gas [mN/m]
288.15 K | 787.2 | 29.53
298.15 K | 776.5 | 28.34
308.15 K | 765.7 | 27.15

CO [methanol]
[2]
Details | surface tension liquid-gas [mN/m]
288.15 K | 22.88
298.15 K | 22
308.15 K | 21.01

[2], 101 kPa
Details | mass density [kg/m3]
288.15 K | 795.8
298.15 K | 786.45
308.15 K | 777

CO [methanol] + CCCC[N+]1(C)CCCC1.O=S(=O)([N-]S(=O)(=O)C(F)(F)F)C(F)(F)F
[1], x2 = 0
Details | mass density [kg/m3] | surface tension liquid-gas [mN/m]
288.15 K | 795.8 | 22.88
298.15 K | 786.4 | 22
308.15 K | 777 | 21.01

CCC[N+]1(C)CCCC1.O=S(=O)([N-]S(=O)(=O)C(F)(F)F)C(F)(F)F
[2], 101.33 kPa
Details | kinematic viscosity [m2/s] | mass density [kg/m3] | speed of sound [m/s]
288.01 K | – | – | 1294.4
288.15 K | 6.82e-05 | 1436.86 | –
293.01 K | – | – | 1282.8
293.15 K | 5.33e-05 | 1432.36 | –
297.99 K | – | – | 1271.3
298.15 K | 4.26e-05 | 1427.83 | –
303.15 K | 3.48e-05 | 1423.32 | –
303.24 K | – | – | 1259.5
308.15 K | 2.88e-05 | 1418.81 | –
308.21 K | – | – | 1248.6
313.15 K | 2.42e-05 | 1414.3 | –
313.2 K | – | – | 1237.6
318.15 K | 2.06e-05 | 1409.86 | –
318.16 K | – | – | 1226.9
323.15 K | 1.76e-05 | 1405.41 | –
323.21 K | – | – | 1216.2

[2]
Details | surface tension liquid-gas [mN/m]
288.15 K | 35.04
293.15 K | 34.87
298.15 K | 34.61
303.15 K | 34.37
308.15 K | 34.14
313.15 K | 33.94
318.15 K | 33.72
323.15 K | 33.48

CCCC[N+]1(C)CCCC1.O=S(=O)([N-]S(=O)(=O)C(F)(F)F)C(F)(F)F
[2], 101.33 kPa
Details | kinematic viscosity [m2/s] | mass density [kg/m3] | speed of sound [m/s]
288.02 K | – | – | 1293.9
288.15 K | 8.9e-05 | 1403.37 | –
293.01 K | – | – | 1281.8
293.15 K | 6.96e-05 | 1398.92 | –
298.01 K | – | – | 1270
298.15 K | 5.57e-05 | 1394.49 | –
303.15 K | 4.52e-05 | 1390.09 | –
303.2 K | – | – | 1258
308.14 K | – | – | 1246.8
308.15 K | 3.69e-05 | 1385.66 | –
313.15 K | 3.06e-05 | 1381.29 | 1235.7
318.12 K | – | – | 1224.7
318.15 K | 2.55e-05 | 1376.92 | –
323.13 K | – | – | 1213.8
323.15 K | 2.15e-05 | 1372.54 | –

[2]
Details | surface tension liquid-gas [mN/m]
288.15 K | 33.71
293.15 K | 33.44
298.15 K | 33.22
303.15 K | 33.02
308.15 K | 32.82
313.15 K | 32.6
318.15 K | 32.35
323.15 K | 32.15
